# In US10768174B2, “Attachment of proteins to interfaces for use in nonlinear optical detection” (Bluelight Therapeutics, Inc., priority 2014, dated 2020):
# Legend:
# calmodulin (CaM) = biological target: T1, calmodulin (CaM) (Homo sapiens, UniProt P0DP23); test: SHG detection of ligand-induced conformational change of labeled calmodulin tethered to Ni-NTA supported lipid bilayer; assay type: binding; details: buffer containing 1 mM CaCl2 injected; N=3
# T1 construct: purchased EMD Millipore (Billerica, Mass.)
# From the text: MBP and CaM Proteins: To explore the ability of our SHG bilayer system to detect and measure conformational changes of a protein, we began by testing the system on CaM and MBP, two proteins previously studied by SHG [32, 33]. First, we tethered labeled CaM to the SLB surface and monitored the change in SHG intensity upon addition of the calmodulin binding peptide (CBP) in the presence or absence of calcium-containing buffers. […] When calcium is omitted from the buffer, addition of the peptide alone results in M=3.1%, (N=3, SEM±1.6) change in SHG intensity, essentially no change (FIG. 7B). […] Next, we evaluated the effect of adding calcium ions. […] Peptide was then added directly to these samples two minutes after calcium addition, producing a positive signal change of M=8.7% (N=3, SEM±0.4). As the magnitude of the SHG signal is proportional to the net, average orientation of the dye label relative to the surface normal, the different magnitudes of SHG signal change upon binding CBP and calcium to unbound CaM confirm that these ligands bind to specific and different conformations of the protein. SHG signal changes can occur in either the positive or negative direction relative to baseline depending on whether the net, average orientation of the probe moves closer to or further away from the surface normal, respectively. […]
# (§1) SHG signal was monitored over several minutes after injection.
# [1] = biological target: monomeric forms of avidin or streptavidin; details: read-out: biotin-binding affinity of monomeric forms of avidin or streptavidin; cited from earlier work
# His-tag-Ni-NTA linkage = test: Specificity of protein attachment to bilayer: incubation with or without imidazole, SHG signal; assay type: binding; details: imidazole 350 mM (FIG. 6A legend) / 300 mM (methods)
# Experimental: We began by characterizing the attachment of the proteins to our SLB surface. The SLB surface we employed has integrated immobilized metal affinity (Ni-NTA) chemistry to specifically tether the proteins to the bilayer in an oriented manner via a poly-histidine tag at the N- or C-terminus. To test the specificity of this interaction, each protein was incubated on the bilayer in the presence or absence of imidazole, a competitive inhibitor of His-tagged protein binding. […] When labeled protein is incubated in the presence of imidazole, SHG signal levels are reduced to less than 10% of the original signal or to background levels, i.e. to those of bilayer alone.
# [2] = biological target: T2, maltose binding protein (MBP) (Escherichia coli, UniProt P0AEX9); test: SHG detection of ligand-induced conformational change of lysine-labeled MBP tethered to Ni-NTA supported lipid bilayer; set-up: purchased AtGen Co, Ltd (Seongnam-si, Gyeonggi-do, South Korea); details: for change in SHG intensity (M): 2 mM maltose, MBP labeled at pH 7.5, N=3; for change in SHG signal (M): 2 mM, MBP labeled at pH 8.3, N=4
# Experimental: We also performed a similar set of experiments with MBP. First, we monitored the SHG intensity of MBP labeled at pH 8.3 upon addition of buffer, lactose, or maltose. […] Because the addition of both 2 mM lactose and buffer alone result in negligible changes in SHG intensity, the change in SHG intensity upon maltose addition is specific to ligand-induced conformational change upon binding.
# The converse trend, preference at K88 over K15, was observed when the experimental conditions changed to pH 8.3. […] Based on inspection of the crystal structures, we hypothesized that when MBP is primarily labeled at K15 rather than K88, this could alter the directionality of SHG signal change upon ligand addition relative to the reverse case, since K15 and K88 appear to rotate towards and away from the surface normal, respectively, assuming the protein is oriented with its N-terminus facing the bilayer. […] Consistent with previous results, the addition of lactose and buffer alone had no effect.
# J Am Chem Soc 136(29):10349-10360). […] (under standard kinetic condition described in ref [28].
# Excess protein was removed by additional washes after incubation.
# as §1
# [3] = biological target: T2, maltose binding protein (MBP); test: Example 2 SHG kinetic reads of PyMPO-labeled His-tagged MBP tethered on 10% Ni-NTA bilayer; details: 10 uL injection of 2 mM solution into 10 uL well; 10% Ni-NTA tethered MBP
# Experimental: Protein labeling protocol: Stock His-tagged maltose binding protein (MBP) (1 mL at nominal 0.5 mg/mL) was buffer exchanged from 20 mM Tris-HCL pH 8.0, 0.1 M NaCl, 10% Glycerol into 0.1 M Na phosphate, pH 7.5 by passing over two of the 2 mL Zeba™ Spin Desalting Columns (Thermo Scientific) equilibrated per the manufacturer's instructions. Concentration and volume of the buffer exchanged material were determined by measuring absorbance on a NanoDrop Spectrophotometer (Thermo Scientific). PyMPO-NHS was weighed out and dissolved to 2 mM in dry DMSO. PyMPO-NHS was added to the buffer exchanged MBP at 3.5:1 mole equivalents. The conjugation reaction was allowed to proceed in the dark at room temp, stirring gently, for 15 minutes. The reaction was terminated by buffer exchange back into the MBP storage buffer (20 mM Tris-HCL pH 8.0, 0.1 M NaCl, 10% Glycerol) over a fresh pair of Zeba™ Spin Desalting Columns. The resultant conjugate was centrifuged at 16K×g for 20 minutes at 4° C., and volume, concentration and degree of labeling was determined for the supernatant by measuring absorbance at 280 nm and 410 nm on the NanoDrop. […]
# Scanning: The entire slide was line scanned to gather SHG data for determining the relative tethering efficiency of 3% vs 10% Ni-NTA surfaces. Well positions for 10% Ni-NTA tethered MBP were recorded and used to set up the MBP kinetic reads (3 wells total). […]
Compound,change in SHG intensity (M) [2],change in SHG signal (M) [2],also measured
[Ca+2].[Cl-].[Cl-] [CaCl2],–,–,change in SHG signal (M) (calmodulin (CaM)): −12.6%
O=C(O)CCCC[C@@H]1SC[C@@H]2NC(=O)N[C@@H]21 [biotin],–,–,Kd [1]: ~10 nM
c1c[nH]cn1 [imidazole],–,–,SHG signal level of labeled protein incubated in the presence of imidazole (His-tag-Ni-NTA linkage): less than 10 % of the original signal
OC[C@H]1O[C@@H](O[C@H]2[C@H](O)[C@@H](O)C(O)O[C@@H]2CO)[C@H](O)[C@@H](O)[C@H]1O (some centres unmarked) [lactose],no effect,0.44%,–
OC[C@H]1O[C@H](O[C@H]2[C@H](O)[C@@H](O)[C@H](O)O[C@@H]2CO)[C@H](O)[C@@H](O)[C@@H]1O [maltose],27.4%,−33.8%,SHG response (induced conformational change) of MBP [3]: only responded to addition of maltose
